Legend:
Test in all cases: KiNativ chemical proteomics profiling in HeLa and PC3 cell lysates
Assay type in all cases: binding
[1] = target: T1, selected panels of kinases in HeLa and PC3 cell lysates (Homo sapiens, UniProt Q09013); conditions: 10 uM; proteome HEL; peptide DIkPDNILLDR; labeling site Lys2
T1 construct: endogenous in cells; host or cells: HeLa and PC3 cell lysates

[2] = target: T2, selected panels of kinases in HeLa and PC3 cell lysates (Homo sapiens, UniProt P00533); conditions: 10 uM, proteome PC3
T2 construct: endogenous in cells; host or cells: HeLa and PC3 cell lysates
T2 sequence (P00533 25-1210): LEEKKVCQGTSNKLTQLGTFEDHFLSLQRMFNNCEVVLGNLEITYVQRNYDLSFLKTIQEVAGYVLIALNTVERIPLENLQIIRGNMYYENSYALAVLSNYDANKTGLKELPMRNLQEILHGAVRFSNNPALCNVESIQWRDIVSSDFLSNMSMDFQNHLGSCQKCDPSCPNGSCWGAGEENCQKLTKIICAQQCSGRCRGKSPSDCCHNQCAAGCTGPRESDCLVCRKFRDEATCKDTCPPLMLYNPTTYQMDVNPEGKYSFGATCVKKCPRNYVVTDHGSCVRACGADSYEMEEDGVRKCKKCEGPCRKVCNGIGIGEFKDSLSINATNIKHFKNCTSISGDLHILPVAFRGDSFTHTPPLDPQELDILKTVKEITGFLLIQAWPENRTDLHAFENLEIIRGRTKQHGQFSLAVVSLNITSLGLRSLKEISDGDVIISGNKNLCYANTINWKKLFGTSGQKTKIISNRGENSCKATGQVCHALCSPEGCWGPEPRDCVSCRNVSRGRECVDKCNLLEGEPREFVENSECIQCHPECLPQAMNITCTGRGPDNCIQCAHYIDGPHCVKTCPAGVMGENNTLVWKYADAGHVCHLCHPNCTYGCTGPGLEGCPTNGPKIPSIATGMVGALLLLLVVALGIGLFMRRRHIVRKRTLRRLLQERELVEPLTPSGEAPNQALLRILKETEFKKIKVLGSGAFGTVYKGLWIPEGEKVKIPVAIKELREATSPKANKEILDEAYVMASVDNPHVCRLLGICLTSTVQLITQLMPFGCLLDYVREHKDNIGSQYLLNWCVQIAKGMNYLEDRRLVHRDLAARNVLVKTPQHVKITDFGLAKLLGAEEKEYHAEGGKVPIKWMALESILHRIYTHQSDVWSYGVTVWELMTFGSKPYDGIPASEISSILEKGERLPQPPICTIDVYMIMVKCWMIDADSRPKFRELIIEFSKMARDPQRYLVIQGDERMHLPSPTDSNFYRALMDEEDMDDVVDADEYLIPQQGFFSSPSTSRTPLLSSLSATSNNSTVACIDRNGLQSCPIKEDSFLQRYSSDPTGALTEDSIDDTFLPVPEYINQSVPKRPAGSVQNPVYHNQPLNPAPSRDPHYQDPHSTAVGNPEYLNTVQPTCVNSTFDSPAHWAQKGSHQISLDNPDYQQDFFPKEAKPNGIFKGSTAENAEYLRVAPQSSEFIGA

[3] = target: T3, selected panels of kinases in HeLa and PC3 cell lysates (Homo sapiens, UniProt Q16584); conditions: 10 uM, peptide DLk[…], labeling site Lys2
T3 construct: endogenous in cells; host or cells: HeLa and PC3 cell lysates
T3 sequence (Q16584 whole entry): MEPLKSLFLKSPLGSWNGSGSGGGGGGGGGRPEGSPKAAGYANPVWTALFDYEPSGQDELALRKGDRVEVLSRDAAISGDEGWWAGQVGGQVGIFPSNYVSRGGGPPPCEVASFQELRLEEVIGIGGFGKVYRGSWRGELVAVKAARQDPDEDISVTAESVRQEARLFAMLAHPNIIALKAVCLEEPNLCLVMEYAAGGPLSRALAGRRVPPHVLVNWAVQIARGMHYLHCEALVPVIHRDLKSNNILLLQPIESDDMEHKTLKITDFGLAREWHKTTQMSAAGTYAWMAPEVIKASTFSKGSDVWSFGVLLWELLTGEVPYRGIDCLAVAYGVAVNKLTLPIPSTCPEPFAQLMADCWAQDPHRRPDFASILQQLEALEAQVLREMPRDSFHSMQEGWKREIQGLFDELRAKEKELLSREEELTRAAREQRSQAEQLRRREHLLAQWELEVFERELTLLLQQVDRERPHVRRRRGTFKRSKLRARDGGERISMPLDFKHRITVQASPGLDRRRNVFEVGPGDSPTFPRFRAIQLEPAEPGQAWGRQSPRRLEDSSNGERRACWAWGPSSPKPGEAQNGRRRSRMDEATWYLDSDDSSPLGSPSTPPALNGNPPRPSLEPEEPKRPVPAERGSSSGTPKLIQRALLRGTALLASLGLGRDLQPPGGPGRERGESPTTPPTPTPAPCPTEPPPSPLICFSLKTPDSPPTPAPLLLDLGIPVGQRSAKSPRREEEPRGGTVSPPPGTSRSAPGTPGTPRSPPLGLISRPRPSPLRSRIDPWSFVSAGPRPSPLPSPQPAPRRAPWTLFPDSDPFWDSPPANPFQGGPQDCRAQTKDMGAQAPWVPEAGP

[4] = target: T4, selected panels of kinases in HeLa and PC3 cell lysates (Homo sapiens, UniProt O94921); conditions: 10 uM; PFTAIRE1; peptide LVALkVIR; proteome PC3; labeling site Lys1
T4 construct: endogenous in cells; host or cells: HeLa and PC3 cell lysates

[5] = target: T5, selected panels of kinases in HeLa and PC3 cell lysates (Homo sapiens, UniProt Q13535); conditions: 10 uM, peptide FYIMMCkPK, labeling site ATP
T5 construct: endogenous in cells; host or cells: HeLa and PC3 cell lysates

[6] = target: T6, selected panels of kinases in HeLa and PC3 cell lysates (Homo sapiens, UniProt P49840); conditions: 10 uM; proteome HEL; peptide DIk[…]; labeling site Lys2
T6 construct: endogenous in cells; host or cells: HeLa and PC3 cell lysates
T6 sequence (P49840 whole entry): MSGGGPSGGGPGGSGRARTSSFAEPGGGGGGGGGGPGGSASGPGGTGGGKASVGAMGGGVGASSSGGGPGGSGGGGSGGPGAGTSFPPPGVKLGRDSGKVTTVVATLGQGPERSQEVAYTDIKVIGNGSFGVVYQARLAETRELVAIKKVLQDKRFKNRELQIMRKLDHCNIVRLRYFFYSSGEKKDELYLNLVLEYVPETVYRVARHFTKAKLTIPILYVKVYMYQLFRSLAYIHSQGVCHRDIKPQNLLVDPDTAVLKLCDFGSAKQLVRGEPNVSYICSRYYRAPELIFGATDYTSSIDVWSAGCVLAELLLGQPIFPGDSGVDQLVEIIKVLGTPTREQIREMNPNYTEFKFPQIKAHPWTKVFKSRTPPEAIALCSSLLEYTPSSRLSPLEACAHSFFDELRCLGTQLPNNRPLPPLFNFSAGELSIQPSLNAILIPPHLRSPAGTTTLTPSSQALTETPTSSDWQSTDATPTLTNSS

[7] = target: T7, selected panels of kinases in HeLa and PC3 cell lysates (Homo sapiens, UniProt Q13464); conditions: 10 uM; ROCK1; peptide kLQLELNQER; proteome PC3; labeling site Other
T7 construct: endogenous in cells; host or cells: HeLa and PC3 cell lysates

[8] = target: T8, selected panels of kinases in HeLa and PC3 cell lysates (Homo sapiens, UniProt O95835); conditions: 10 uM; proteome HEL; peptide ALYATkTLR; labeling site Lys1
T8 construct: endogenous in cells; host or cells: HeLa and PC3 cell lysates

[9] = target: T9, selected panels of kinases in HeLa and PC3 cell lysates (Homo sapiens, UniProt P52333); conditions: 10 uM; proteome HEL; peptide IADFGLAkLLPLDKDYYVVR; labeling site Activation Loop
T9 construct: endogenous in cells; host or cells: HeLa and PC3 cell lysates

[10] = target: T10, selected panels of kinases in HeLa and PC3 cell lysates (Homo sapiens, UniProt O15530); conditions: 10 uM; PDK1; peptide EYAIkILEK; proteome PC3; labeling site Lys1
T10 construct: endogenous in cells; host or cells: HeLa and PC3 cell lysates

[11] = target: T11, selected panels of kinases in HeLa and PC3 cell lysates (Homo sapiens, UniProt Q9UBS0); conditions: 10 uM; p70S6Kb; peptide DLk[…]; proteome HEL; labeling site Lys2
T11 construct: endogenous in cells; host or cells: HeLa and PC3 cell lysates

[12] = target: T12, selected panels of kinases in HeLa and PC3 cell lysates (Homo sapiens, UniProt O60307); conditions: 10 uM, peptide DLk[…], labeling site Lys2
T12 construct: endogenous in cells; host or cells: HeLa and PC3 cell lysates
T12 sequence (O60307 whole entry): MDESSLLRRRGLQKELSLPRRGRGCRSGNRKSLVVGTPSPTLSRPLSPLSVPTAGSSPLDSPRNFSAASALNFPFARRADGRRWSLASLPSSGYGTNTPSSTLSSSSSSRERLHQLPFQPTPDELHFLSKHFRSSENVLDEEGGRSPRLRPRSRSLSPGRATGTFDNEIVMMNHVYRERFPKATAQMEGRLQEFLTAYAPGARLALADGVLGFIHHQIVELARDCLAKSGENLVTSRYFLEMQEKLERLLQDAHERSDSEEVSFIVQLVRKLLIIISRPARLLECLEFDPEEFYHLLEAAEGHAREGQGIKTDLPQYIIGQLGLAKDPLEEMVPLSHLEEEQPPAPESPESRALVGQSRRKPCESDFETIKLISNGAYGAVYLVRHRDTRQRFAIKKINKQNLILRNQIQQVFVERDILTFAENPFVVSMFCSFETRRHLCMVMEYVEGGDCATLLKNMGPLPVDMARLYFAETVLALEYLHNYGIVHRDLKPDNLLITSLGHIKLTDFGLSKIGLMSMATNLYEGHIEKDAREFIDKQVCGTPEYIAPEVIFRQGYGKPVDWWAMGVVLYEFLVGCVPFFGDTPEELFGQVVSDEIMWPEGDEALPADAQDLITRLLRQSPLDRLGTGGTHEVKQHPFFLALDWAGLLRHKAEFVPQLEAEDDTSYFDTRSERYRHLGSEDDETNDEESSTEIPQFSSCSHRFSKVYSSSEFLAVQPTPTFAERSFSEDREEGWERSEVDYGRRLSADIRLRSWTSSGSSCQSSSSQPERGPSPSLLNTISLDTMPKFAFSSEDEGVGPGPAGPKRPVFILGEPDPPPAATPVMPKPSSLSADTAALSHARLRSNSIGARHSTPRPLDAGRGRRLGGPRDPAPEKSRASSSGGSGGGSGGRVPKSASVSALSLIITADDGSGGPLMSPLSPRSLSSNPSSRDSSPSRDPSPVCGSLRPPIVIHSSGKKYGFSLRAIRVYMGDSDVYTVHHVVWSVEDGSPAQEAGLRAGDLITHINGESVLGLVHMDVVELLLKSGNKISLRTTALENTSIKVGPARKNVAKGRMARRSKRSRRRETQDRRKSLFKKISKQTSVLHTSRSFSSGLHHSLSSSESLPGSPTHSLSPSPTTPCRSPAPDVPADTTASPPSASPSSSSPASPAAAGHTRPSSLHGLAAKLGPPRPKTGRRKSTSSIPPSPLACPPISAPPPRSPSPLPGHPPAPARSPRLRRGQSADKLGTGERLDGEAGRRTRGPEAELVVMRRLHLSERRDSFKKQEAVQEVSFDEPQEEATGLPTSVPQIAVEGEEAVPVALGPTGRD

[13] = target: T13, selected panels of kinases in HeLa and PC3 cell lysates (Homo sapiens, UniProt Q05397); conditions: 10 uM; proteome PC3; peptide […]kTCK; labeling site Lys1
T13 construct: endogenous in cells; host or cells: HeLa and PC3 cell lysates

[14] = target: T14, selected panels of kinases in HeLa and PC3 cell lysates (Homo sapiens, UniProt Q6PHR2); conditions: 10 uM; ULK3; peptide EVVAIkCVAK; proteome HEL; labeling site Lys1
T14 construct: endogenous in cells; host or cells: HeLa and PC3 cell lysates
T14 sequence (Q6PHR2 whole entry): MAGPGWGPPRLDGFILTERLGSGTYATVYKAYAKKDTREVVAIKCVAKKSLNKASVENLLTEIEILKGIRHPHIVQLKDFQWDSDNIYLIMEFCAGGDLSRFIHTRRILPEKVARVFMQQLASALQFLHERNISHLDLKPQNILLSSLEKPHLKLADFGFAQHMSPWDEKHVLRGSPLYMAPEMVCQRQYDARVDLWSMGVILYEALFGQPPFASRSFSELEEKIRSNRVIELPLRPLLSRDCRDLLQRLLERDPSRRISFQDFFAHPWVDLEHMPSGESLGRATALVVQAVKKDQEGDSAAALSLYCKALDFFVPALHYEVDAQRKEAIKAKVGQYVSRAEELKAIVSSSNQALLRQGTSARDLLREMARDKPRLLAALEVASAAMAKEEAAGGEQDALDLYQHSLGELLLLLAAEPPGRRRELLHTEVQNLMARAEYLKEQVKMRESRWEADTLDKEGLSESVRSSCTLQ

[15] = target: T15, selected panels of kinases in HeLa and PC3 cell lysates (Homo sapiens, UniProt Q96GX5); conditions: 10 uM; proteome HEL; peptide LYAVkVVK; labeling site Lys1
T15 construct: endogenous in cells; host or cells: HeLa and PC3 cell lysates

[16] = target: T16, selected panels of kinases in HeLa and PC3 cell lysates (Homo sapiens, UniProt P41240); conditions: 10 uM, peptide VSDFGLTk[…], labeling site Activation Loop
T16 construct: endogenous in cells; host or cells: HeLa and PC3 cell lysates
T16 sequence (P41240 whole entry): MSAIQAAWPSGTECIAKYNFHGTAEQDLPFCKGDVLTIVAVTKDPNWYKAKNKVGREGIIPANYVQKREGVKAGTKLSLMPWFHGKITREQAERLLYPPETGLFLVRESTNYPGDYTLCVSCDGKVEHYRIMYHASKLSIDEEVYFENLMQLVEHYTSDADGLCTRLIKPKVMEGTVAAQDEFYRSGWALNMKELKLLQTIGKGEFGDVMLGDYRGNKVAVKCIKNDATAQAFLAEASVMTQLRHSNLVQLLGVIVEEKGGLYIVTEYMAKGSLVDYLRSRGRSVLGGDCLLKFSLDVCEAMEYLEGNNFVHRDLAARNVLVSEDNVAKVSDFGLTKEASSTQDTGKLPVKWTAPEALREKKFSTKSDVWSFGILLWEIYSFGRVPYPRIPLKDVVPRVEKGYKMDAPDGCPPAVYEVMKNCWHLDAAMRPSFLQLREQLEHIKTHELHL

[17] = target: T17, selected panels of kinases in HeLa and PC3 cell lysates (Homo sapiens, UniProt P49841); conditions: 10 uM; proteome PC3; peptide DIk[…]; labeling site Lys2
T17 construct: endogenous in cells; host or cells: HeLa and PC3 cell lysates

[18] = peptide IPVAIkELR, labeling site Lys1
[19] = peptide ITDFGLAkLLGAEEK, labeling site Activation Loop
[20] = peptide […]kVPIK, labeling site Activation Loop

Row | Structure (SMILES) | % Inhibiton, DMPK1 [1] | % Inhibiton, EGFR [2, 18] | % Inhibiton, EGFR [2, 19] | % Inhibiton, EGFR [2, 20] | % Inhibiton, MLK3 ([3]; proteome HEL) | % Inhibiton, MLK3 ([3]; proteome PC3) | % Inhibition PFTAIRE1 [4] | % Inhibiton, ATR ([5]; proteome HEL) | % Inhibiton, ATR ([5]; proteome PC3) | % Inhibiton, GSK3A [6] | % Inhibition ROCK1 [7] | % Inhibiton, LATS1 [8] | % Inhibiton, JAK3 domain2 [9] | % Inhibition PDK1 [10] | % Inhibition p70S6Kb [11] | % Inhibiton, MAST3 ([12]; proteome HEL) | % Inhibiton, MAST3 ([12]; proteome PC3) | % Inhibiton, FAK [13] | % Inhibition ULK3 [14] | % Inhibiton, MASTL [15] | further results
1 | COc1cc(C(=O)N2CCC(N3CCN(C)CC3)CC2)ccc1Nc1ncc2c(n1)N(C1CCCC1)c1ccccc1C(=O)N2C [Compound 25, 11-cyclopentyl-2-((2-methoxy-4-(4-(4-methylpiperazin-1-yl)piperidine-1-carbonyl)phenyl)amino)-5-methyl-5H-benzo[e]pyrimido[5,4-b][1,4]diazepin-6(11H)-one] | 10.0% | -6.4% | -31.1% | -10.1% | 3.1% | 4.4% | -9.7% | 8.5% | 21.0% | 4.1% | -4.2% | 7.2% | 31.8% | -5.4% | 8.4% | 0.5% | -6.8% | 79.4% | -3.7% | 14.5% | % Inhibiton, CSK ([16]; proteome HEL): 6.5%; % Inhibiton, CSK ([16]; proteome PC3): -4.8%; % Inhibiton, GSK3B [17]: 4.6%
2 | CCOc1cc(C(=O)N2CCC(N3CCN(C)CC3)CC2)ccc1Nc1ncc2c(n1)N(C1CCCC1)c1ccccc1C(=O)N2C [Compound 26] | 29.4% | -3.3% | -5.7% | -8.1% | -12.1% | 11.9% | -14.3% | -9.8% | -4.3% | 10.2% | -8.1% | 6.8% | ~53.9% | 0% | -21.4% | -5.1% | -3.9% | 48.4% | 2.5% | 5.9% | % Inhibiton, CSK ([16]; proteome HEL): 14.3%; % Inhibiton, CSK ([16]; proteome PC3): -6.9%; % Inhibiton, GSK3B [17]: -3%

Source: article PMC3914206
